From PMC5234788 (PLoS ONE, 2017) come the findings set out here.

Format in all cases: in vivo
Assay [1] deals with male CD-1 ICR mice. The assay can be described thus: Locomotor activity test. The conditions noted are these: DZP 2 mg/kg, i.p., 60 min. The source says: The spontaneous activity video analysis system consists of 8 sound-attenuated chambers (40 cm × 40 cm × 65 cm) with a built-in infrared camera. (JL Behave, Shanghai Ji-Liang Software Technology Co., Ltd). During the behavioral tests, the experimenter was outside the testing room, and the chambers were cleaned between successive runs. Forty male CD-1 ICR mice were allowed to acclimate for three days in home cages and were handled for another three days to minimize stress after arrival in the animal facility. On the following day, after habituation to the activity chambers for 60 min, mice were administered vehicle, diazepam (DZP, 2 mg/kg, i.p.) or l–THBr (1, 5, or 10 mg/kg, i.p.) and immediately placed into the test chambers to record their locomotor activity for 60 min.

Assay [2] relates to male CD-1 ICR mice. The assay can be described thus: Elevated plus-maze test. The conditions noted are these: DZP 2 mg/kg, i.p., P < 0.05 vs control. The text has this:
The elevated plus-maze test is widely used for the screening and evaluation of anxiolytic drugs. The apparatus consists of two open arms (30 cm × 5 cm) and two enclosed arms (30 cm × 5 cm × 15 cm), which is elevated 45 cm above the ground. The entire maze was made of clear Plexiglas and illuminated by four 30 W white lights with 300 lx light intensity arranged as a cross 100 cm above the maze. 48 male CD-1 ICR mice were randomly divided into either the vehicle group, one of three doses of l–THBr groups, or the diazepam group. 30 min after injection, mice were gently placed on the center platform facing an open arm, and the number of entries and the time spent in both arms were recorded by a video camera for 5 min. The results were expressed as the percentage of entries into the open arms (%) = (the number of entries into the open arms / the total number of entries into the four arms) × 100%; and the percentage of time spent in the open arms (%) = (time spent in the open arms / total time spent in the four arms) × 100%.
In a separate experiment, WAY100635 (a 5-HT1A antagonist) was used to test whether the anxiolytic-like activity of l-THBr is mediated by the activation of the 5-HT1A receptor. Forty male CD-1 ICR mice were randomly divided into one of four groups: vehicle, WAY100635 (3 mg/kg, i.p.), l–THBr (5 mg/kg, i.p.) or WAY100635 (3 mg/kg, i.p.) + l–THBr (5 mg/kg, i.p.). Mice were administered vehicle or WAY100635 followed by vehicle or l–THBr (5 mg/kg) injections 15 min later. The test was performed 30 min after the administration of l-THBr or vehicle.

Assay [3] deals with male CD-1 ICR mice. The assay can be described thus: Light-dark box test. The conditions noted are these: DZP 2 mg/kg, 30 min before test, P < 0.05 vs vehicle. The source says: The light-dark box test is a sensitive model to detect activity in disorders related to anxiety, based on the innate aversion of rodents to brightly lit areas and on their spontaneous exploratory behavior in response to a novel environment. The light-dark transition box is a polypropylene animal cage (44 cm × 21 cm × 21 cm), which is divided into two compartments, a light box (illuminated by a 60 W light source with 1000 lx light intensity) and a dark box. Forty-eight male CD-1 ICR mice were placed in the light box 30 min after l–THBr or DZP injection and allowed to move freely to both boxes for 5 min. The number of transitions between the two boxes were recorded by a video camera.

With `CN1C(=O)CN=C(c2ccccc2)c2cc(Cl)ccc21` [Diazepam, reference compound], the “influence on locomotor activity (travel distance)” value in the assay on male CD-1 ICR mice [1] is recorded as “no influence”. Also, in the assay on male CD-1 ICR mice [2], the “percentage of entries into the open arms” value is on record as “significant increase” and the “percentage of time spent in the open arms” value is “significant increase”. Moreover, the “number of transitions between the light/dark sides” value in the assay with male CD-1 ICR mice [3] is recorded as “increased”.
